pIC50: −log10 of the molar value. “And” between values parts separate entries of the source, which are not always exact repeats. Equal values may be shown once.
Experiments:
[1] = target: Glycogen synthase kinase-3 alpha (Homo sapiens, UniProt P49840); assay: TR-FRET Assay
How it was run: (§1)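 Signal is measured as TR-FRET between a terbium anti-phospho-Ser641 antibody and streptavidin-d2, added after an EDTA quench. Compounds are preincubated 30 min in assay buffer.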

[2] = target: Glycogen synthase kinase-3 beta (Homo sapiens, UniProt P49841); assay: TR-FRET Assay
Chain of Glycogen synthase kinase-3 beta (P49841 whole entry): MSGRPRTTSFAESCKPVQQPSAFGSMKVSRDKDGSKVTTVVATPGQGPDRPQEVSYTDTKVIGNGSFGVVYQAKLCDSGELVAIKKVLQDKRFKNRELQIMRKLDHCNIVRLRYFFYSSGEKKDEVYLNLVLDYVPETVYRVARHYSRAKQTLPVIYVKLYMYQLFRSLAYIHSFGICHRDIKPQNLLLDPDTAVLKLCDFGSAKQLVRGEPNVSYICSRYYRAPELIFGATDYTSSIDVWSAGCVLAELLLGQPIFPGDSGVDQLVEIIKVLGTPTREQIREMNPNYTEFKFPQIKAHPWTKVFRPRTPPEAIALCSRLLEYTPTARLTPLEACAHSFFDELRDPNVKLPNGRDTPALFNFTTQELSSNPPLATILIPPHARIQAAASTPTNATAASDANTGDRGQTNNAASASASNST
How it was run: as §1

Chain of Glycogen synthase kinase-3 alpha (P49840 whole entry): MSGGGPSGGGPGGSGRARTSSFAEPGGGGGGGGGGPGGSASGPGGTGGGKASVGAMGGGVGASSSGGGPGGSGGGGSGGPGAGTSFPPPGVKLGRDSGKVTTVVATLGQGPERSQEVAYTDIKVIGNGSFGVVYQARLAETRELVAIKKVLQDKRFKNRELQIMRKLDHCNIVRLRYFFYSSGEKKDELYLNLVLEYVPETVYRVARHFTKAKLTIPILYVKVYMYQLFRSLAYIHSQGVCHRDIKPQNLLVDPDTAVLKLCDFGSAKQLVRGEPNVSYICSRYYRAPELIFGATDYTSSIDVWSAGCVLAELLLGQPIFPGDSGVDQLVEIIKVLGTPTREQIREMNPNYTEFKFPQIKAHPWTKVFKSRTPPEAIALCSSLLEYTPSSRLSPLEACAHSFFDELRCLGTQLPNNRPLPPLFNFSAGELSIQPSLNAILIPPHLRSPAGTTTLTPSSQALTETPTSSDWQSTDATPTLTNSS

Structure (SMILES) | pIC50 [1] | pIC50 [2]
C[C@H]1CC[C@]2(C1)C1=C(N=NC1)NC1=C2C(=O)CC(C)(C)C1 [US20250313563, Compound 897751] | > 7.00 | 6.00 to 7.00
CC1(C)CC(=O)C2=C(C1)NC1=C(CN=N1)C21Cc2ccccc2C1 [US20250313563, Compound 897752] | > 7.00 | 6.00 to 7.00
CC1(C)CC(=O)C2=C(C1)NC1=C(CN=N1)[C@@]21CCOC2(CCC2)C1 [US20250313563, Compound 897755] | 5.30 to 6.00 | 5.30 to 6.00
CC1(C)CC(=O)C2=C(C1)NC1=C(CN=N1)[C@]21CCOC2(CCC2)C1 [US20250313563, Compound 897756] | 6.00 to 7.00 | 6.00 to 7.00
C[C@@H]1C[C@@]2(CCO1)C1=C(N=NC1)NC1=C2C(=O)CC(C)(C)C1 [US20250313563, Compound 899559] | 6.00 to 7.00 | 5.30 to 6.00
C[C@H]1C[C@]2(CCO1)C1=C(N=NC1)NC1=C2C(=O)CC(C)(C)C1 [US20250313563, Compound 899560] | 6.00 to 7.00 | 5.30 to 6.00
CC1(C(F)(F)F)CC(=O)C2=C(C1)NC1=C(CN=N1)C21CCOCC1 (stereo not given) [US20250313563, Compound 901458] | 6.00 to 7.00 | 6.00 to 7.00
O=C1C2=C(NC3N=NC=C3C23CCOCC3)C2CCC1C2 (stereo not given) [US20250313563, Compound 901464] | 6.00 to 7.00 | 6.00 to 7.00
CC1(C)CC(=O)C2=C(C1)NC1=C(CN=N1)C21CCN(S(=O)(=O)c2ccccc2F)CC1 [US20250313563, Compound 901465] | > 7.00 | > 7.00 and 6.00 to 7.00
CC1(C)CC(=O)C2=C(C1)NC1=C(CN=N1)C21CCN(S(=O)(=O)c2cccc(F)c2)CC1 [US20250313563, Compound 901466] | > 7.00 | > 7.00
Cn1cc(S(=O)(=O)N2CCC3(CC2)C2=C(N=NC2)NC2=C3C(=O)CC(C)(C)C2)cn1 [US20250313563, Compound 901467] | > 7.00 and 6.00 to 7.00 | > 7.00 and 5.30 to 6.00
COc1cccc(S(=O)(=O)N2CCC3(CC2)C2=C(N=NC2)NC2=C3C(=O)CC(C)(C)C2)c1 [US20250313563, Compound 901468] | > 7.00 and 6.00 to 7.00 | > 7.00 and 5.30 to 6.00
COc1ccc(S(=O)(=O)N2CCC3(CC2)C2=C(N=NC2)NC2=C3C(=O)CC(C)(C)C2)cc1 [US20250313563, Compound 901469] | 6.00 to 7.00 | 6.00 to 7.00
CC1(C)CC(=O)C2=C(C1)NC1=C(CN=N1)C21CCN(S(=O)(=O)C2CC2)CC1 [US20250313563, Compound 901470] | > 7.00 and 6.00 to 7.00 | > 7.00 and 6.00 to 7.00
Cn1ccc(S(=O)(=O)N2CCC3(CC2)C2=C(N=NC2)NC2=C3C(=O)CC(C)(C)C2)n1 [US20250313563, Compound 901471] | > 7.00 and 6.00 to 7.00 | > 7.00 and 5.30 to 6.00
CO[C@H]1C[C@]2(C1)C1=C(N=NC1)NC1=C2C(=O)CC(C)(C)C1 [US20250313563, Compound 901472] | < 5.30 | < 5.30
CO[C@H]1C[C@@]2(C1)C1=C(N=NC1)NC1=C2C(=O)CC(C)(C)C1 [US20250313563, Compound 901473] | < 5.30 | < 5.30
CC1(C)CC(=O)C2=C(C1)NC1=C(CN=N1)C21CN(S(=O)(=O)c2ccccc2)C1 [US20250313563, Compound 901474] | > 7.00 | > 7.00
O=C1C[C@@]2(CCOC2)CC2=C1C1(CCOCC1)C1=C(N=NC1)N2 [US20250313563, Compound 901475] | 6.00 to 7.00 | 6.00 to 7.00
O=C1C[C@]2(CCOC2)CC2=C1C1(CCOCC1)C1=C(N=NC1)N2 [US20250313563, Compound 901476] | 6.00 to 7.00 | 6.00 to 7.00
O=C1C[C@H](C(F)(F)F)CC2=C1C1(CCOCC1)C1=C(N=NC1)N2 [US20250313563, Compound 901477] | 6.00 to 7.00 | 5.30 to 6.00
O=C1C[C@@H](C(F)(F)F)CC2=C1C1(CCOCC1)C1=C(N=NC1)N2 [US20250313563, Compound 901478] | 6.00 to 7.00 | 6.00 to 7.00
CC[C@]1(c2cccc(OC)c2)C2=C(CC(C)(C)CC2=O)NC2N=NC(C(=O)OC)=C21 (stereo not given in full) [US20250313563, Compound 901479] | > 7.00 | > 7.00
CCC1(c2cccc(C(F)(F)F)c2)C2=CN=NC2NC2=C1C(=O)NC1(CCC1)C2 (stereo not given) [US20250313563, Compound 902202] | > 7.00 | > 7.00
CCC1(c2cccc(N3CC(C)(C)C3C(C)C)c2)C2=CN=NC2NC2=C1C(=O)CC(C)(C)C2 (stereo not given) [US20250313563, Compound 902969] | 6.00 to 7.00 | 5.30 to 6.00
CCC1(c2cccc(N(C)c3ccncn3)c2)C2=CN=NC2NC2=C1C(=O)CC(C)(C)C2 (stereo not given) [US20250313563, Compound 902970] | > 7.00 | 6.00 to 7.00
CCC1(c2cccc(N(C)c3cnccn3)c2)C2=CN=NC2NC2=C1C(=O)CC(C)(C)C2 (stereo not given) [US20250313563, Compound 902971] | > 7.00 | > 7.00
CC1(C)CC(=O)C2=C(C1)NC1=C(CN=N1)[C@@]21CCOC2(CCCC2)C1 [US20250313563, Compound 907326] | 6.00 to 7.00 | 5.30 to 6.00

Structure (SMILES) | pIC50 [1] | pIC50 [2]
CC1(C)CC(=O)C2=C(C1)NC1N=NC=C1[C@]21CCOC2(CCCC2)C1 (stereo not given in full) [US20250313563, Compound 907327] | 6.00 to 7.00 | 5.30 to 6.00
CC[C@@H]1C[C@@]2(CCO1)C1=C(N=NC1)NC1=C2C(=O)CC(C)(C)C1 [US20250313563, Compound 907328] | 6.00 to 7.00 | 5.30 to 6.00
CC[C@H]1C[C@]2(CCO1)C1=C(N=NC1)NC1=C2C(=O)CC(C)(C)C1 [US20250313563, Compound 907329] | 6.00 to 7.00 | 5.30 to 6.00
CCC1(c2cccc(N(C)C(=O)c3ccccc3)c2)C2=CN=NC2NC2=C1C(=O)CC(C)(C)C2 (stereo not given) [US20250313563, Compound 909201] | > 7.00 | 6.00 to 7.00
CCC1(c2cccc(N(C)C(=O)CN3CCCC3)c2)C2=CN=NC2NC2=C1C(=O)CC(C)(C)C2 (stereo not given) [US20250313563, Compound 909202] | 6.00 to 7.00 | 5.30 to 6.00
CCC1(c2cc(N3CCOCC3)ccc2F)C2=CN=NC2NC2=C1C(=O)CC(C)(C)C2 (stereo not given) [US20250313563, Compound 909203] | 6.00 to 7.00 | 5.30 to 6.00
CCC1(c2cccc(S(=O)(=O)C3CC3)c2)C2=CN=NC2NC2=C1C(=O)CC(C)(C)C2 (stereo not given) [US20250313563, Compound 909204] | > 7.00 | > 7.00 and 6.00 to 7.00
CCCC(C(C)=O)c1cccc(C2(CC)C3=CN=NC3NC3=C2C(=O)CC(C)(C)C3)c1 (stereo not given) [US20250313563, Compound 909205] | > 7.00 | > 7.00
CC1(C)CC(=O)C2=C(C1)NC1=C(CN=N1)C21CCN(S(=O)(=O)C2CCCC2)CC1 [US20250313563, Compound 909206] | > 7.00 | > 7.00 and 6.00 to 7.00
CC1(C)CC(=O)C2=C(C1)NC1=C(CN=N1)C21CCN(S(=O)(=O)CC2CC2)CC1 [US20250313563, Compound 909207] | > 7.00 | > 7.00 and 6.00 to 7.00
O=C1CC2(CCC2)CC2=C1C1(CCOCC1)C1=C(N=NC1)N2 [US20250313563, Compound 909208] | > 7.00 | 6.00 to 7.00
CC1(C)CC(=O)C2=C(C1)NC1=C(CN=N1)C21CN(c2ccncn2)C1 [US20250313563, Compound 909209] | 5.30 to 6.00 | 5.30 to 6.00
CC1(C)CC(=O)C2=C(C1)NC1=C(CN=N1)[C@]21C[C@H](OCc2ccccc2)C1 [US20250313563, Compound 909210] | 6.00 to 7.00 | 6.00 to 7.00
CC1(C)CC(=O)C2=C(C1)NC1=C(CN=N1)[C@]21C[C@@H](OCc2ccccc2)C1 [US20250313563, Compound 909211] | > 7.00 | 6.00 to 7.00
CC[C@]1(c2cc(-c3ccnc(C)c3)ccc2F)C2=CN=NC2NC2=C1C(=O)CC(C)(C)C2 (stereo not given in full) [US20250313563, Compound 909212] | > 7.00 | 6.00 to 7.00
CC[C@@]1(c2cc(-c3ccnc(C)c3)ccc2F)C2=CN=NC2NC2=C1C(=O)CC(C)(C)C2 (stereo not given in full) [US20250313563, Compound 909213] | < 5.30 | < 5.30
CCN(C(C)=O)c1cccc([C@@]2(CC)C3=CN=NC3NC3=C2C(=O)CC(C)(C)C3)c1 (stereo not given in full) [US20250313563, Compound 909214] | > 7.00 | > 7.00
CCN(C(C)=O)c1cccc([C@]2(CC)C3=CN=NC3NC3=C2C(=O)CC(C)(C)C3)c1 (stereo not given in full) [US20250313563, Compound 909215] | 6.00 to 7.00 | 5.30 to 6.00
CC[C@]1(c2ccccc2)C2=CN=NC2NC2=C1C(=O)[C@H](C)C[C@@H]2C (stereo not given in full) [US20250313563, Compound 909216] | 6.00 to 7.00 | 6.00 to 7.00
CC[C@@]1(c2ccccc2)C2=CN=NC2NC2=C1C(=O)[C@H](C)C[C@@H]2C (stereo not given in full) [US20250313563, Compound 909217] | 6.00 to 7.00 | 5.30 to 6.00
CC[C@@]1(c2ccccc2)C2=CN=NC2NC2=C1C(=O)[C@@H](C)C[C@H]2C (stereo not given in full) [US20250313563, Compound 909218] | < 5.30 | < 5.30
CC[C@]1(c2ccccc2)C2=CN=NC2NC2=C1C(=O)[C@@H](C)C[C@H]2C (stereo not given in full) [US20250313563, Compound 909219] | < 5.30 | < 5.30
CC[C@]1(c2cc(-c3cnn(C)c3)ccc2F)C2=CN=NC2NC2=C1C(=O)CC(C)(C)C2 (stereo not given in full) [US20250313563, Compound 909220] | > 7.00 | 6.00 to 7.00
CC[C@@]1(c2cc(-c3cnn(C)c3)ccc2F)C2=CN=NC2NC2=C1C(=O)CC(C)(C)C2 (stereo not given in full) [US20250313563, Compound 909223] | < 5.30 | < 5.30
CC1(C)CC(=O)C2=C(C1)NC1=C(CN=N1)C21COC2(CN(C(=O)OC(C)(C)C)C2)C1 (stereo not given) [US20250313563, Compound 911083] | 6.00 to 7.00 | 5.30 to 6.00
CCC1(c2cccc(C(F)(F)F)c2)C2=CN=NC2NC2=C1C(=O)NC(C)C2 (stereo not given) [US20250313563, Compound 911956] | > 7.00 | 6.00 to 7.00
CC1OCCC12C1=C(N=NC1)NC1=C2C(=O)CC(C)(C)C1 (stereo not given) [US20250313563, Compound 911958] | < 5.30 | < 5.30

Reference: BindingDB's records for patent US20250313563 (The Broad Institute, 2025)
